US20260357266A1, “COMPOSITION FOR KILLING A THERAPY-INDUCED SENESCENCE (TIS) CELLS AND USES THEREOF” (AJOU UNIVERSITY INDUSTRY-ACADEMIC COOPERATION FOUNDATION, priority 2022, published 2026)

Tests used:
[1] = tested on: SNU601, HSC4, and SW480 cells (control and TIS); experiment: CCK8 assay and microscopy, senolytic effect on control and TIS gastric, head and neck and colon cancer cells; assay type: cell-based; conditions: FIG. 5
Experimental: FIGS. 5a and 5b show the results of microscopy and CCK8 assay performed to evaluate the cell killing effect of PIM 1/2 inhibitor VI on control (Ctrl) cells and therapy-induced senescent (TIS) cells after treating cancer cell lines (HSC4: head and neck cancer, SNU601: gastric cancer, and SW480: colon cancer) with PIM 1/2 inhibitor VI.
Therapy-induced senescent breast cancer cells were treated with the FDA-approved inhibitors (Table 1) for the 23 genes finally selected in Example 2, the senescent cell-selective cell division inhibitory effect and senolytic effect of the drugs were evaluated by CCK8 assay (D-Plus CCK, cell viability assay kit, Cat CCK-3000, Dong-In LS) (FIG. 3A). […]
In order to evaluate the senolytic effect of a Pim-1 kinase inhibitor on gastric cancer (SNU601), head and neck cancer (HSC4), and colon cancer (SW480) cell lines induced to senescence by treatment, the concentration-dependent senolytic effect of the Pim-1 kinase inhibitor was evaluated in the same manner as described in Example 3.

[2] = tested on: MCF7 control cells and TIS cells; experiment: CCK8 assay and microscopy, senolytic effect on control and therapy-induced senescent (TIS) MCF7 cells; assay type: cell-based; conditions: for cell viability, TIS group compared to control group: CCK8, MCF7, FIG. 3b
Experimental: FIGS. 3d and 3e show the results of CCK8 assay and microscopy performed to evaluate the cell killing effect of SGI-1776 after treating MCF7 cells (Ctrl and TIS) with another PIM1 kinase inhibitor, SGI-1776 (Selleckhem, Catalog No. S2198, CAS 1025065-69-3).
Therapy-induced senescent breast cancer cells were treated with the FDA-approved inhibitors (Table 1) for the 23 genes finally selected in Example 2, the senescent cell-selective cell division inhibitory effect and senolytic effect of the drugs were evaluated by CCK8 assay (D-Plus CCK, cell viability assay kit, Cat CCK-3000, Dong-In LS) (FIG. 3A). In this case, for the control group (cancer cells without therapy-induced senescence), the measurement was made after treatment with the inhibitor at the indicated concentration for 48 hours, and for the therapy-induced senescent cell group, the cancer cells were induced to senescence by treatment with adriamycin for 48 hours as described in Example 1, and then treated with the indicator at the indicated concentration for 48 hours while replacing the culture medium, the inhibitor was treated at the indicated concentration for 48 hours, and then the measurement was made.

[3] = tested on: senescent cell types, including senescent cancer cells; conditions: literature (Aging Cell 15, 428-435 (2016); Nat. Med. 22, 78-83 (2016)); cited from earlier work
[4] = tested on: breast cancer cell lines (MCF7, ZR75-1, Hs578T, and MDA-MB-231); experiment: Cell size and SA-β-gal staining after therapy-induced senescence by adriamycin; assay type: cell-based; conditions: 100 nM adriamycin for 48 h, then medium replaced and cultured 5 to 7 days
Experimental: (§1) To generate therapy-induced senescent tumor cells, breast cancer cell lines with contrasting characteristics (MCF7 and ZR75-1, which are female hormone receptor-positive but relatively less malignant, and Hs578T and MDA-MB-231, which are hormone receptor- and HER2 receptor-negative triple-negative breast cancer cell lines and are relatively more aggressive) were each treated with 100 nM of adriamycin (Selleckhem, Catalog No. S1208, CAS 25316-40-9). After 48 hours, the cell culture medium was replaced and the cells were cultured for 5 to 7 days, thereby generating therapy-induced senescent tumor cells.

[5] = tested on: p21; experiment: p21 mRNA expression after therapy-induced senescence by adriamycin; assay type: cell-based; conditions: 100 nM adriamycin for 48 h, then medium replaced and cultured 5 to 7 days; MCF7, ZR75-1, Hs578T, MDA-MB-231
Experimental: as §1

[6] = tested on: PIM-1 kinase; experiment: PIM-1 kinase mRNA/protein expression after therapy-induced senescence; assay type: cell-based; conditions: 10 μM cisplatin; MCF7, MDA-MB 231, MKN1, HSC4, SNU869
Description: In addition to breast cancer cell lines (MCF7 and MDA-MB231), gastric cancer (SNU601, MKN1, and MKN74), colon cancer (SW480, and Hct116), head and neck cancer (HSC4), cervical cancer (HeLa S3), cholangiocarcinoma (SNU308, SNU478, and SNU1196), pancreatic adenocarcinoma (BxPC3), and prostate cancer (PC3) cell lines were induced to senescence by treatment in the same manner as in Example 1, thereby obtaining therapy-induced senescent cells.
(§2) In addition, in order to examine whether therapy-induced senescence (TIS) occurs even when using anticancer agents other than adriamycin, various cancer cell lines (MCF7, MDA-MB 231, MKN1, HSC4, and SNU869) were treated with 10 μM of cisplatin (Selleckhem, Catalog No. S1166 CAS 15663-27-1).

[7] = tested on: various cancer cell lines (MCF7, MDA-MB 231, MKN1, HSC4, and SNU869); experiment: Therapy-induced senescence by cisplatin in various cancer cell lines; assay type: cell-based; conditions: 10 μM cisplatin; MCF7, MDA-MB 231, MKN1, HSC4, SNU869
Experimental: as §2

CCCOc1ccc(/C=C2\SC(=O)NC2=O)cc1 [PIM1/2 kinase inhibitor VI]
killing effect on therapy-induced senescent cancer cells ([1]; SNU601, HSC4, SW480 TIS cells): significant killing effect on the therapy-induced senescent cancer cells
killing effect on control cells ([1]; SNU601, HSC4, SW480 control cells): no significant killing effect on the control cells
cell viability, TIS group compared to control group [2]: significantly inhibited in a therapy-induced senescent cell group compared to a control group
selective senolytic effect on therapy-induced senescent tumor cells ([2]; CCK8, inhibitor 48 h, TIS by adriamycin vs control, FIG. 3A): exhibited a selective senolytic effect on the therapy-induced senescent tumor cells
killing effect on TIS cells ([2]; FIGS. 3B and 3C, TIS cells): effectively killed the TIS cells
cell growth and killing of control cells ([2]; FIGS. 3B and 3C, control cells, high concentrations): inhibited cell growth in the control cells at high concentrations but hardly killed the control cells
senolytic effect on senescent cells compared with ABT-263 ([2]; FIGS. 3B and 3C, versus ABT-263): significantly superior to that of ABT-263
killing effect on therapy-induced senescent tumor cells compared to normal tumor cells ([2]; summary statement, tumor cells induced to senescence by a chemotherapeutic agent): a significant killing effect was observed on the therapy-induced senescent tumor cells compared to normal tumor cells

CC1(C)CCC(c2ccc(Cl)cc2)=C(CN2CCN(c3ccc(C(=O)NS(=O)(=O)c4ccc(N[C@H](CCN5CCOCC5)CSc5ccccc5)c(S(=O)(=O)C(F)(F)F)c4)cc3)CC2)C1 [ABT-263]
cell viability, TIS group compared to control group [2]: significantly inhibited in a therapy-induced senescent cell group compared to a control group
killing effect on both control and TIS cells ([2]; FIGS. 3B and 3C): almost complete killing effect on both the control and TIS cells
killing effect, control vs TIS cells ([2]; FIGS. 3B and 3C, difference between control and TIS cells): significant difference between the killing effect on the control cell and the killing effect on the TIS cells
elimination of senescent cell types [3]: able to effectively eliminate a wide range of senescent cell types, including senescent cancer cells

COc1cccc2c1C(=O)c1c(O)c3c(c(O)c1C2=O)C[C@@](O)(C(=O)CO)C[C@@H]3O[C@H]1C[C@H](N)[C@H](O)[C@H](C)O1 [adriamycin]
cell size [4]: the cell size of each breast cancer cell line increased
number of cells positive to SA-b-gal [4]: the number of cells positive to SA-b-gal, a senescence marker, increased
mRNA expression of p21 [5]: increase significantly in each cell line

CN1CCC(CNc2ccc3ncc(-c4cccc(OC(F)(F)F)c4)n3n2)CC1 [SGI-1776]
cytotoxicity to TIS cells compared to control cells ([2]; FIG. 3D, MCF7): high cytotoxicity to the TIS cells compared to the control cells

N.N.[Cl][Pt][Cl] [cisplatin]
mRNA expression of the PIM-1 kinase gene [6]: significantly increased
occurrence of therapy-induced senescence (TIS) [7]: therapy-induced senescence (TIS) occurred
